# Molecular target: Protein Tat (Human immunodeficiency virus type 1 group M subtype B (isolate HXB2)) (UniProt P04608)
# Assay: inhibitors of Tat binding to TAR RNA, dose response, counter-screen for Vif-APOBEC3G degradation inhibitor project, biochemical, fluorescence polarization, FAM-labeled TAR RNA (AID 1117361)
# Chain of Protein Tat (Human immunodeficiency virus type 1 group M subtype B (isolate HXB2)) (P04608 whole entry, looked up): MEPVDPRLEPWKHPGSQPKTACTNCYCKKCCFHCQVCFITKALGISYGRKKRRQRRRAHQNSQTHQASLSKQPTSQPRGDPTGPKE
row,SMILES,IC50 [µM]
1,C(=C\c1ccco1)/C=N/n1cnnc1,10.4
2,Cc1nn(-c2ccccn2)c2c1C(=O)C(Br)CC2 (centres undefined),8.82
3,Cc1ccc(/C=C/C2=Cc3c(sc(NC(=O)CSc4n[nH]c(N)n4)c3C#N)C(C)(C)C2)o1,3.04
4,CCOc1ccc(-n2c(Cc3cc(=O)[nH]c(=O)[nH]3)nnc2SC(C)C(=O)OC)cc1 (centres undefined),92.9
5,Nc1c(C(=O)NC2CC2)sc2nc3c(c(-c4ccco4)c12)CC/C3=C/c1ccco1,0.937
6,CN(C)c1ccc(Cc2cc3c(O)ccc(O)c3cc(Cc3ccc(N(C)C)cc3)c2=O)cc1,85.4
7,COc1cccc(-c2cn3nc4c(nc3n2)CCCC4)c1,100
8,Cc1ccc(/C=C/C(=O)Nc2cccc(S(=O)(=O)N3CCOCC3)c2)o1,89.1
9,O=C(N/N=C/c1ccc(O)c(O)c1O)/C(=C/c1ccc([N+](=O)[O-])cc1)NC(=O)c1ccccc1,7.17
10,CCOC(=O)c1sc2nc(CC(=O)OC)nc(NCc3ccco3)c2c1C,16.1
11,COC(=O)Cn1c(CCC(=O)O)ccc1-c1ccccc1,42.3
12,Cc1cc(/C=N/Nc2ccc([N+](=O)[O-])cn2)c(C)n1-c1ccc(C(=O)O)cc1,5.58
13,COc1cc(C(=O)NCC(c2ccco2)N2CCCC2)ccc1OCc1c(C)noc1C (centres undefined),93.5
14,Cc1c(N=C2C=C(Br)C(=O)C(Br)=C2)c(=O)n(-c2ccccc2)n1C,11
15,CCN1C(=O)/C(=C\c2ccco2)C(C(=O)OC)=C1C,81.8
16,CCCCC(=O)NC(=S)Nc1cc(C(=O)O)ccc1Cl,51.2
17,CCOc1cccc(OCC)c2c(C)[n+](CC3CCCO3)c(C)c1-2 (centres undefined),4.16
18,Cc1cc(C(=O)CSc2nc3ccccc3c(=O)[nH]2)c(C)n1C,49.2
19,C=CC(=O)N1C/C(=C/c2ccc(F)cc2)C(=O)/C(=C\c2ccc(F)cc2)C1,89.5
20,O=C(COC(=O)c1ccc(NS(=O)(=O)c2cccs2)cc1)NCc1ccco1,16.4
21,C=CCN=c1scc(-c2ccco2)n1/N=C/c1ccc(O)c(O)c1O,35.4
22,Cc1cccc(NC(=S)NC(=O)/C=C/c2ccco2)c1,20.2
23,CC(C)NC[C@@H](O)c1ccc(O)c(O)c1,5.21

row,SMILES,IC50 [µM]
1,C=C(C)C(=O)Nc1cccc(C2=NOC3(C2)C[C@H](C(N)=O)N(C(=O)C(c2ccccc2)c2ccccc2)C3)c1 (some centres undefined),31.7
2,CCc1ccccc1NC(=O)c1cccc(NC(=O)/C=C/c2ccco2)c1,26.6
3,Cc1cccc(NC(=O)CNC(=O)c2cccc(-n3cccc3)c2)c1C,63.3
4,COc1ccc(OC)c(S(=O)(=O)Nc2ccc(O)c3ccccc23)c1,83
5,O=C(NCCO)Nc1ccc2nc(-c3ccco3)c(-c3ccco3)nc2c1,1.76
6,O=C(O)C1Nc2c(Cl)cc(Cl)c(Cl)c2C2C=CCC12 (centres undefined),45.9
7,N#Cc1c(-c2ccco2)cc(-c2ccccc2)[nH]c1=O,5
8,O=[N+]([O-])c1cc2oc3c(c2c(C=NCc2ccncc2)c1O)CCCC3,13.4
9,O=C(NCCCO)c1ccc2nc(-c3ccco3)c(-c3ccco3)nc2c1,3.58
10,Cc1ccc(S(=O)(=O)N2CCC(C(=O)Nc3nnc(-c4ccco4)s3)CC2)cc1,51.1
11,CC(=O)c1ccc2c(c1)C1C=CCC1C(c1ccncc1)N2 (centres undefined),36.6
12,CC(=O)OC1COC(n2ccc3ccccc32)C(OC(C)=O)C1OC(C)=O (centres undefined),88.1
13,CS(=O)(=O)c1ccc2c(c1)SC1=NC(=O)/C(=C/c3ccco3)C(=N)N12,10.4
14,CNc1c(C(=O)O)ccc2c1C(=O)c1ccccc1C2=O,21.9
15,COc1cccc(CNC(=O)CCNS(=O)(=O)c2cccs2)c1,9.05
16,CNCc1ccccc1Sc1cc(O)ccc1O,17.5
17,NC(=O)/C(=C/c1ccco1)C(N)=S,12
18,CCOc1cccc(=O)c2c(C)n(-c3ccc(C(=O)O)cc3)c(C)c12,3.3
19,O=C1C=CC(=O)c2c(O)c(CO)c(CO)c(O)c21,3.48
20,O=C1Cc2cccc(=O)c(O)c2C(=O)O1,87.7
21,C[c-]1[c-](C)[c-](C)[c-](C)[c-]1C.[Fe].c1cc2nccc(N3CCCC3)[c-]2c1 (centres undefined),2.81
22,O=C1C(=Cc2ccco2)CCCC1=Cc1ccco1,63.9
23,N#Cc1c(N)sc(=S)c2c1CCCCC2,1.84

row,SMILES,IC50 [µM]
1,CCC1=NN2C(=N)/C(=C\c3ccc(SCc4ccco4)o3)C(=O)N=C2S1,63.3
2,CN(C)C(CNC(=O)c1cccnc1Sc1ccccc1)c1ccco1 (centres undefined),68.7
3,CC(=O)Nc1ccc(S(=O)(=O)NCCSCc2ccco2)cc1,65.8
4,O=C(Nc1ccc(Cl)cc1)Nc1ccc(N2CCC(C(F)(F)F)CC2)nc1,32.5
5,COc1ccc2c(c1OC)C(=O)OC2CC(=O)c1ccc(O)c(O)c1 (centres undefined),80.5
6,O=C(Nc1nc(-c2ccco2)c(-c2ccco2)s1)C1CCC1,2.65
7,CC1=CC(C)(C)Nc2ccc(OC(=O)CN3C(=O)c4cccc5cccc(c45)C3=O)cc21,15.3
8,CCOC(=O)COc1nc(-c2ccco2)cc(-c2ccco2)c1C#N,8.34
9,O/N=C1\CCC\C1=C/c1ccco1,27.2
10,Cc1cc(NC(=O)CCNS(=O)(=O)c2cc(Br)cnc2N)ccc1Br,93.7
11,CCC(=Nc1ccc(N)cc1)C1=C(O)C(C(=O)OC)C(C)(C)CC1=O (centres undefined),5.48
12,O=S(=O)(O)c1cc(O)c2ccc(Nc3ccccc3)cc2c1,12.5
13,CCOC(=O)C1CCN(C(c2cccs2)c2sc3nc(C)nn3c2O)CC1 (centres undefined),1.96
14,CC(=O)Nc1ccc(S(=O)(=O)Nc2nc3ccccc3nc2Nc2ccc(N)cc2)cc1,43.3
15,O=C1CC(Nc2ccc(N3CCOCC3)cc2)C(=O)N1Cc1ccccc1 (centres undefined),15.4
16,CCOc1cc(N2CCOCC2)c(OCC)cc1NS(=O)(=O)c1ccc(Cl)s1,14.9
17,N=C1/C(=C\c2ccc(SCc3ccco3)o2)C(=O)N=C2SC=NN12,2.49
18,CCCC(=O)N(CCc1ccc(OC)cc1)Cc1nc2ccccc2c(=O)[nH]1,71.8
19,O=C1NC(=S)S/C1=C\C=C\c1ccc([N+](=O)[O-])o1,2.76
20,Cc1cc2ccccc2n1CCNC(=O)C1CCCCC1,23.5
21,Nc1cccc2cc(S(=O)(=O)O)ccc12,67.9
22,C=CC1=C(C(=O)O)N2C(=O)C(NC(=O)Cc3ccccc3)C2SC1 (centres undefined),64.2
23,CCOC(=O)C1=C(N)n2c(s/c(=C\c3ccco3)c2=O)=C(C(=O)OCC)C1c1ccco1 (centres undefined),7.85

row,SMILES,IC50 [µM]
1,Cc1ccc(N(CC(=O)NCCSCc2ccco2)S(=O)(=O)c2ccc(F)cc2)cc1,63.7
2,CC[n+]1ccc(C)c2cc(P(=O)(c3ccccc3)c3ccccc3)ccc21,72.9
3,Oc1ccc(NCc2cccc(OCc3ccc(F)cc3)c2)cc1,68.7
4,O=C(CCN1C(=O)/C(=C/c2cccs2)SC1=S)NC1=NCCS1,46
5,Cc1ccc(C)n1-c1cccc(C(=O)O)c1,2.07
6,O=C(NCc1ccccn1)c1ccc2nc(-c3ccco3)c(-c3ccco3)nc2c1,4.75
7,O=C(NN1C(=O)/C(=C/C=C/c2ccco2)SC1=S)c1ccncc1,2.69
8,CC(=C/c1ccco1)/C=N/NC(=O)Cc1cccn1C,10.7
9,Cc1ccc2cc(C(c3nnnn3Cc3ccccc3)N3CCc4ccccc43)c(=O)[nH]c2c1 (centres undefined),46.4
10,CCN(CC(=O)Nc1c(C(=O)OC)[nH]c2ccccc12)c1ccc2c(c1)OCO2,14.3
11,CCC(=O)NC1=C(Cl)C(=O)C(NC(=O)CC)=C(Cl)C1=O,79.8
12,O=[N+]([O-])c1ccc(-c2ccc(/C=N/c3c(-c4ccco4)nc4ccccn34)o2)cc1,1.4
13,Nc1nc(-c2ccco2)c(-c2ccco2)s1,2.39
14,COc1cccc(NS(=O)(=O)c2ccc3c(c2)C2C=CCC2C(c2ccc(C(=O)O)cc2)N3)c1 (centres undefined),3.59
15,CC1(OC(=O)C2CCCC2)C(=O)C=C2C=C(c3ccsc3)OC=C2C1=O (centres undefined),45.4
16,CCN(CC)C(=O)c1ccc(CS(=O)(=O)c2ccc(OC)cc2)o1,2.35
17,O=C1CC(c2ccco2)CC(O)=C1C=Nc1cc(Cl)ccc1Cl (centres undefined),7.33
18,COc1ccc(N=C2NC(=O)/C(=C\C=C\c3ccco3)S2)cc1,6.32
19,CCOC(=O)C(=O)NCc1ccc(/C=C2/N=C(C)C(C(=O)OCC)=C2O)o1,4.71
20,CC(C)(C)NC(=O)C(c1ccncc1)N(C(=O)CNC(=O)c1ccco1)c1ccc2c(c1)OCO2 (centres undefined),44.1
21,COC(=O)c1cnn2c(C(F)(F)F)cc(-c3ccco3)nc12,68.1
22,N#C/C(=C/c1ccc(N2CCCCCC2)o1)c1cccc(F)c1,98.4
23,CCOc1cc(N2CCOCC2)c(OCC)cc1NC(=O)CSc1ncn[nH]1,35.7

row,SMILES,IC50 [µM]
1,O=C1NC(=S)NC1=Cc1ccco1,35.7
2,COC1=C(N)C(=O)c2nc(-c3nc(C(=O)O)c(C)c(-c4ccc(OC)c(OC)c4O)c3N)ccc2C1=O,42.1
3,COC/C=C/C1=CC2=CC(=O)C(C)(OC(=O)C3CCCC3)C(=O)C2=CO1 (centres undefined),10.5
4,Nc1ccc(Nc2ccccc2)c(S(=O)(=O)O)c1,31.4
5,Cc1cnnc2ccc3c(no[n+]3[O-])c12,36.5
6,COC(=O)c1ccccc1NC(=O)C1CCCC1,4.92
7,Cc1ccc[n+](-c2[nH]c(=O)sc2/C=N/NC(=O)c2ccccc2[O-])c1,22.1
8,O=C(/C(=N/N=C/c1ccc(O)c(O)c1O)c1ccccc1)c1ccccc1,35.2
9,CCOC(=O)c1ccc2c(c1)C1C=CCC1C(C(=O)O)N2 (centres undefined),11
10,O=S(=O)(c1ccc(OCC(O)CN2CCC(Cc3ccccc3)CC2)cc1)N1CCOCC1 (centres undefined),10.3
11,O=S(=O)(O)c1cc(O)c2c(O)c(N=Nc3cc(Cl)ccc3O)c(S(=O)(=O)O)cc2c1,15.9
12,N=C1S/C(=C\c2ccco2)C(=O)N1c1ccc2c(c1)OCO2,18.4
13,CCN(CC)c1ccc(NC(=O)CCS(=O)(=O)c2ccc(Br)cc2)c(C)c1,46.5
14,CN1CCc2c(sc3c2c(NCc2ccco2)nc2nnnn23)C1,79.8
15,COc1ccc2c(c1)n([O-])c1c([n+]2=O)CCC1,52.1
16,O=C(O)C1Nc2c(C(=O)N3CCOCC3)cccc2C2C=CCC12 (centres undefined),8.99
17,Cc1nn(-c2ccccc2)c2sc(C(=O)N3CCc4ccccc4C3)cc12,40.1
18,O=C1CC(Nc2ccc(N3CCOCC3)cc2)C(=O)N1c1ccccc1F (centres undefined),12.9
19,CC1CCN(Cc2c(O)ccc3c2O/C(=C\c2ccco2)C3=O)CC1,4.79
20,CN(C)C(=O)c1nc2ccc(Cl)cn2c1CN1CCCC(OCc2ccccc2)C1 (centres undefined),44.6
21,c1cnc(N2CCN(c3cnccn3)CC2)nc1,71.9
22,CC(C)C1Nc2ccc(C(=O)O)cc2C2C=CCC21 (centres undefined),4.93

# — PubChem BioAssay AID1117361 (Southern Research Institute, 2015)
